Data set [1] concerns the target T1, truncated tau (amino acids 297-391) in solution binding to solid-phase bound truncated tau (residues 297-390) (Homo sapiens, UniProt P10636).
T1 construct: made in house
As to the kind of experiment: Solid phase assay for tau aggregation (tau-tau binding, B50). To be noted: concentration at which tau-tau binding is decreased by 50%; mean ± SE. From the text:
The tau-tau aggregation assay uses purified recombinant tau fragments in a solid-phase immunoassay. Methods are described in detail in e.g. WO 96/30766. Briefly, the assay measures the binding of truncated tau (amino acids 297-391) in solution to solid-phase bound truncated tau (residues 297-390). Binding of the former is detected with the antibody mAb 423, which specifically recognises peptides containing a C-terminal Glu-391 residue. The Tau complex formed in vitro is similar to the aggregated complex that forms in Alzheimer's disease as a consequence of the stability of the pathological Tau-Tau binding interaction through a 94/95-amino acid repeat domain (residues 297-390), found in the proteolytically stable core of the paired helical filament.
The B50 value (expressed as mean±SE) is determined as the concentration of compound at which tau-tau binding is decreased by 50%.

In data set [2] the target is full-length human tau protein (htau40) and truncated tau (295-390, dGA) in 3T6 mouse cells (Homo sapiens, UniProt P10636). The data set can be described thus: Cell-based tau aggregation assay.
Data set [3] is described as follows: Solubility of LMT salts in aqueous HCl solutions at 37° C. The format is physicochemical. To be noted: lower limit complete dissolution, upper limit saturation. The procedure:
Two aqueous solutions (pH 2.00 and 3.01 at 21.4° C.) were prepared by carefully adding HCl (5 M) to deionised water. In each experiment a 5 ml aliquot of one of the aforementioned solutions was heated to 37° C. […] This step was repeated until no further dissolution took place.

The next data set has as its system rat. As to the kind of experiment: 6-month study of LMT.2HBr in the rat. It counts as in vivo. To be noted: high dose 45 mg MT/kg/day. An excerpt:
The decreased neutrophils or neutropaenia observed after LMT.2HBr although reversible would make patients more susceptible to bacterial infections as their primary role is in destruction of bacteria.

For data set [4], the system named is rat, stomach (non glandular). As to the kind of experiment: Gastric irritation: 28-day rat study with MTC or LMT.2HBr. To be noted: 90 mg/kg/day; for Gastritis, total incidence predicted with 10 per group: number of animals of 10; for Gastritis, grade 1: incidence predicted with 10 per group / Gastritis, grade 2: incidence predicted with 10 per group / Gastritis, grade 3: incidence predicted with 10 per group: scaled from 5 to 10 examined. The format is in vivo. Also on record: key to Gastritis, grade 3 (moderate): incidence / Inflammatory cell infiltration, grade 1 (minimal): incidence / Gastritis, grade 1 (minimal): incidence / Gastritis, grade 2 (slight): incidence / Gastritis, grade 3: incidence predicted with 10 per group / Gastritis, grade 1: incidence predicted with 10 per group / Gastritis, grade 2: incidence predicted with 10 per group: “—” = finding not present; 1 = minimal; 2 = slight; 3 = moderate; 4 = moderately severe; 5 = severe.

Another data set relates to rats. The data set can be described thus: Studies on the hemopoietic system (methemoglobinemia), rat. The format is in vivo.
Another data set concerns minipigs. The data set can be described thus: Studies on the hemopoietic system (methemoglobinemia), minipig. The format is in vivo. As for the experimental part:
Studies on the hemopoietic system were performed in rat, monkey and minipig.

A further data set deals with female Wistar rats. As to the kind of experiment: 14 day oral administration to rats: toxicology and neutrophil response. The format is in vivo. To be noted: for Neutrophils (total neutrophils as percentage of total white cells) / Dose-related deaths / Early neutrophils (frequency of presence of immature neutrophils per animal group): 14 days oral; for Neutrophils (total neutrophils as percentage of total white cells): 95 mg MT/kg/day Days 1-10, 60 mg MT/kg/day Days 11-14; for Dose-related deaths: animal numbers per group of 8 rats; for Early neutrophils (frequency of presence of immature neutrophils per animal group): animals per group of 8. An excerpt: Table: Neutrophil response in rats following 14 day oral administration of different salt forms of LMT.

Setting [5] is: aqueous HCl solution pH 2.00 (21.4° C.).
Setting [6] is: aqueous HCl solution pH 3.01 (21.4° C.).
Setting [7] is: female rats, 28-day, terminal kill, 5 examined, cell = number of animals.
Setting [8] is: female rats, cell = number of animals.
The mark [9] stands for this setting: male rats, 28-day, terminal kill, 5 examined, cell = number of animals.
Setting [10] is: male rats, cell = number of animals.

Marks after values point to notes of the source that are not given here.

Here are results for eight compounds from US10864216B2, “Phenothiazine diaminium salts and their use” (WisTa Laboratories Ltd., priority 2011, dated 2020).

T1 sequence (P10636 614-708): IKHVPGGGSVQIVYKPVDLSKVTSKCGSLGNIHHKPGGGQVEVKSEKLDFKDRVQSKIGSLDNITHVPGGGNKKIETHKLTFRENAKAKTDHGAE
T1 sequence (P10636 614-707): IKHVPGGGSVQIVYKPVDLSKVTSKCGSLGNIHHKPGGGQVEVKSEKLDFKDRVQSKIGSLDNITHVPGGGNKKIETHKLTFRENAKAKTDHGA

`O=S(=O)(O)CCS(=O)(=O)O` [EDSA, ethanedisulfonic acid, reference compound]: in data set [1], the IC50 (commonly the point on the concentration scale where inhibition reaches its midpoint) is above 500 µM.

With `CN(C)c1ccc2c(c1)Sc1cc(N(C)C)ccc1N2` [LMT.2EsOH, N,N,N′,N′-Tetramethyl-10H-phenothiazine-3,7-diaminium bis(ethanesulfonate)], in data set [2] (listed as LMT•2EsOH), the “THx, therapeutic index (THx = LD50/EC50)” value is on record as 100 and the “EC50 (μM)” value was 0.52 ± 0.13 (n = 3) μM. This compound also gave a half-inhibitory concentration (IC50) in data set [1] of 297 ± 75.1 µM.

On to `CN(C)c1ccc2c(c1)Sc1cc(N(C)C)ccc1N2` [LMT.2HBr, N,N,N′,N′-tetramethyl-10H-phenothiazine-3,7-diaminium di(bromide)], for which, in data set [3] (setting [5]), the “Solubility g/5 ml (37° C.)” value was 4.822-5.096 g/5 ml. The “Solubility g/5 ml (37° C.)” value in data set [3] (setting [6]) is reported as 4.726-5.236 g/5 ml. Also, the “Mature neutrophils and granulocytes in the bone marrow” value in the data set on rat is “Decreased numbers of mature neutrophils and granulocytes”. Moreover, in data set [4] (setting [7]), the “Gastritis, grade 1 (minimal): incidence” value is recorded as “—”; the “Gastritis, grade 2 (slight): incidence” value was 1; the “Gastritis, grade 3 (moderate): incidence” value is recorded as 1; the “Inflammatory cell infiltration, grade 1 (minimal): incidence” value is “—”. In data set [4] (female rats), the “Gastritis, total incidence predicted with 10 per group” value is given as 4. Further, in data set [4] (setting [8]), the “Gastritis, grade 1: incidence predicted with 10 per group” value is recorded as “—”; the “Gastritis, grade 2: incidence predicted with 10 per group” value was 2; the “Gastritis, grade 3: incidence predicted with 10 per group” value was 2. In data set [4] (setting [9]), the “Gastritis, grade 1 (minimal): incidence” value is on record as 1; the “Gastritis, grade 2 (slight): incidence” value is reported as “—”; the “Gastritis, grade 3 (moderate): incidence” value is on record as 1. Also, the “Gastritis, total incidence predicted with 10 per group” value in data set [4] (male rats) was 4. Also, in data set [4] (setting [10]), the “Gastritis, grade 1: incidence predicted with 10 per group” value is 2; the “Gastritis, grade 2: incidence predicted with 10 per group” value was “—”; the “Gastritis, grade 3: incidence predicted with 10 per group” value is 2. In addition, in data set [2] (listed as LMT•2HBr), the “THx, therapeutic index (THx = LD50/EC50)” value is 92 and the “EC50 (μM)” value is listed as 0.66 ± 0.15 (n = 8) μM. For the same compound, the “Lowest dose at which methemoglobinemia was observed” value in the data set on rats was 15 mg MT/kg/day. In addition, the “Lowest dose at which methemoglobinemia was observed” value with minipigs is listed as 10 mg MT/kg/day. This compound returned a half-maximal inhibitory concentration (IC50) in data set [1] of 472 ± 27.6 µM. In the data set on female Wistar rats (14 days), the “Neutropaenia in prepared blood smears (mature neutrophils)” value is given as “marked depletion of mature neutrophils”, the “Numbers of neutrophilic granulocytes in the bone marrow” value is reported as “considerably greater” and the Treatment-related deaths entry is on record as “Treatment-related deaths occurred”. In the data set with female Wistar rats, the “Neutrophils (total neutrophils as percentage of total white cells)” value turned out to be 3.00%*, the Dose-related deaths was 2/8 and the “Early neutrophils (frequency of presence of immature neutrophils per animal group)” value is 8/8.

As for `CN(C)c1ccc2c(c1)Sc1cc(N(C)C)ccc1N2.Cl.Cl` [LMT.2HCl, N,N,N′,N′-tetramethyl-10H-phenothiazine-3,7-diaminium dichloride], the “Solubility g/5 ml (37° C.)” value in data set [3] (setting [5]) is given as 4.404-4.961 g/5 ml. Besides, in data set [3] (setting [6]), the “Solubility g/5 ml (37° C.)” value is 4.978-6.029 g/5 ml. For the same compound, the “THx, therapeutic index (THx = LD50/EC50)” value in data set [2] was 102. In data set [1], this compound gave an IC50 of 361 ± 38.2 µM. The “Neutropaenia in prepared blood smears (mature neutrophils)” value with female Wistar rats (14 days) is recorded as “no decrease”. Moreover, in the data set with female Wistar rats, the “Neutrophils (total neutrophils as percentage of total white cells)” value stood at 19.90%, the Dose-related deaths is on record as 0/8 and the “Early neutrophils (frequency of presence of immature neutrophils per animal group)” value is listed as 2/8.

In the case of `CN(C)c1ccc2c(c1)Sc1cc(N(C)C)ccc1N2` [LMT.2TsOH, N,N,N′,N′-Tetramethyl-10H-phenothiazine-3,7-diaminium bis(p-toluenesulfonate)], in data set [2] (bis(p-toluenesulfonate)), the “THx, therapeutic index (THx = LD50/EC50)” value came out at 140. The same compound returned an IC50 in data set [1] of 296 ± 37.9 µM.

As to `CN(C)c1ccc2c(c1)Sc1cc(N(C)C)ccc1N2` [LMT.EDSA, N,N,N′,N′-Tetramethyl-10H-phenothiazine-3,7-diaminium ethanedisulfonate], in data set [2] (listed as LMT•EDSA), the “THx, therapeutic index (THx = LD50/EC50)” value is reported as 115 and the “EC50 (μM)” value was 0.68 ± 0.32 (n = 4) μM. The compound further came in with a half-inhibitory concentration (IC50) in data set [1] of 400 ± 17.6 µM.

Take `CN(C)c1ccc2c(c1)Sc1cc(N(C)C)ccc1N2` [LMT.NDSA, N,N,N′,N′-Tetramethyl-10H-phenothiazine-3,7-diaminium naphthalenedisulfonate]: in data set [2] (listed as LMT•NDSA), the “THx, therapeutic index (THx = LD50/EC50)” value is 108 and the “EC50 (μM)” value was 0.71 ± 0.34 (n = 4) μM. For the same compound, the IC50 in data set [1] worked out at 334 ± 63.2 µM.

For `CS(=O)(=O)O` [MSA, methansulfonic acid, reference compound], the IC50 in data set [1] was above 500 µM.
